PubChem BioAssay AID192 (DTP/NCI, 2004)
Values joined by “and” are separate entries in the source; they are usually repeats but may differ in a detail not shown here. Identical values can stand only once. Toxic doses and inconclusive results are not listed. Numbered stars: 1 amine (or outer) side, 2 acyl side, 3 side chain; on linkers, the order of the positions; unused ones are H or OH. Bridge positions count the residues as written; N and C are the ends. Square brackets hold non-standard residues; d marks the D form. Peptide text beside a SMILES is read from it. I, II: the chains in the order shown. Actinocin(1to9) = Cc1c2oc3c(C)ccc(C(=O)[*:2])c3nc-2c(C(=O)[*:1])c(N)c1=O; NMeV = CN[CH](C(=O)O)C(C)C; Sar = CNCC(=O)O

Tested on: BDF1 mice, B16 melanoma ip, median survival T/C
Assay: NCI In Vivo Anticancer Drug Screen. Data for tumor model B16 Melanoma (intraperitoneal) in B6D2F1 (BDF1) mice
Details: endpoint: median survival time, higher = longer survival
How it was run: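 The ratio T/C compares compound-treated mice with vehicle-treated controls, using survival or tumor size as the endpoint in a transplantable tumor model.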

[1] = dose: 100.0 mg/kg/injection, schedule: Q01DX009 (ip), vehicle: Klucel (hydroxypropylcellulose) (HPC)
[2] = dose: 200.0 mg/kg/injection, schedule: Q01DX009 (ip), vehicle: Klucel (hydroxypropylcellulose) (HPC)
[3] = dose: 400.0 mg/kg/injection, schedule: Q01DX009 (ip), vehicle: Klucel (hydroxypropylcellulose) (HPC)
[4] = dose: 100.0 mg/kg/injection, schedule: Q01DX009 (ip), vehicle: saline
[5] = dose: 25.0 mg/kg/injection, schedule: Q01DX009 (ip), vehicle: Klucel (hydroxypropylcellulose) (HPC)
[6] = dose: 50.0 mg/kg/injection, schedule: Q01DX009 (ip), vehicle: Klucel (hydroxypropylcellulose) (HPC)
[7] = dose: 100.0 mg/kg/injection, schedule: Q01DX009 (ip), vehicle: saline with Tween-80
[8] = dose: 200.0 mg/kg/injection, schedule: Q01DX009 (ip), vehicle: saline with Tween-80
[9] = dose: 200.0 mg/kg/injection, schedule: Q01DX009 (ip), vehicle: saline
[10] = dose: 400.0 mg/kg/injection, schedule: Q01DX009 (ip), vehicle: saline
[11] = dose: 100.0 mg/kg/injection, schedule: Q04DX003 (ip), vehicle: saline

Structure (SMILES): S=P(Nc1ccccc1)(Nc1ccccc1)c1ccccc1
- T/C [1]: 104 % of control
- T/C [2]: 96 % of control
- T/C [3]: 87 % of control

Structure (SMILES): C[N+](C)(C)CC(=O)[O-]
- T/C (dose: 50.0 mg/kg/injection, schedule: Q01DX009 (ip), vehicle: saline): 108 % of control
- T/C [4]: 101 % of control

Structure (SMILES): CCOC(=O)C[Si](C)(C)C
- T/C [5]: 102 % of control
- T/C [6]: 108 % of control
- T/C [1]: 86 % of control
- T/C [2]: 107 % of control
- T/C [3]: 97 % of control

Structure (SMILES): C[n+]1c(-c2cccc3ccccc23)c2cc(N)ccc2c2ccccc21
- T/C (dose: 1.56 mg/kg/injection, schedule: Q01DX009 (ip), vehicle: water): 114 % of control
- T/C (dose: 3.12 mg/kg/injection, schedule: Q01DX009 (ip), vehicle: water): 106 % of control
- T/C (dose: 6.25 mg/kg/injection, schedule: Q01DX009 (ip), vehicle: water): 124 % of control
- T/C (dose: 12.5 mg/kg/injection, schedule: Q01DX009 (ip), vehicle: water): 94 % of control

Structure (SMILES): [I][Pt+2][I].[NH-]CC[NH-]
- T/C (dose: 2.75 mg/kg/injection, schedule: Q01DX009 (ip), vehicle: Klucel (hydroxypropylcellulose) (HPC)): 110 % of control
- T/C (dose: 5.5 mg/kg/injection, schedule: Q01DX009 (ip), vehicle: Klucel (hydroxypropylcellulose) (HPC)): 109 % of control and 114 % of control
- T/C (dose: 11.0 mg/kg/injection, schedule: Q01DX009 (ip), vehicle: Klucel (hydroxypropylcellulose) (HPC)): 109 % of control and 113 % of control
- T/C (dose: 22.0 mg/kg/injection, schedule: Q01DX009 (ip), vehicle: Klucel (hydroxypropylcellulose) (HPC)): 120 % of control

Structure (SMILES): c1ccc(CSC2=NCCS2)cc1
- T/C [7]: 102 % of control
- T/C [8]: 105 % of control
- T/C (dose: 400.0 mg/kg/injection, schedule: Q01DX009 (ip), vehicle: saline with Tween-80): 97 % of control

Structure (SMILES): CC(CCl)C(C#N)(c1ccccc1)c1ccccc1 (centres undefined)
- T/C (dose: 50.0 mg/kg/injection, schedule: Q01DX009 (ip), vehicle: saline with Tween-80): 93 % of control
- T/C [7]: 90 % of control
- T/C [8]: 102 % of control

Structure (SMILES): CCC(C)C1NC(=O)C(NC(=O)c2c3nc4c(C(=O)NC5C(=O)NC(C(C)C)C(=O)N6CCCC6C(=O)N(C)CC(=O)N(C)C(C(C)C)C(=O)OC5C)ccc(C)c4oc-3c(C)c(=O)c2N)C(C)OC(=O)C(C(C)C)N(C)C(=O)CN(C)C(=O)C2CCCN2C1=O (centres undefined) (I: TIP[Sar][NMeV] / II: TVP[Sar][NMeV]; ester I:1-I:C, II:1-II:C; linker I:N-II:N via Actinocin(1to9); configuration not given here)
- T/C (dose: 0.2 mg/kg/injection, schedule: Q01DX001 (ip), vehicle: water): 116 % of control
- T/C (dose: 12.5 micrograms/kg/injection, schedule: Q01DX009 (ip), vehicle: water): 117 % of control
- T/C (dose: 25.0 micrograms/kg/injection, schedule: Q01DX009 (ip), vehicle: water): 116 % of control
- T/C (dose: 75.0 micrograms/kg/injection, schedule: Q04DX003 (ip), vehicle: water): 119 % of control

Structure (SMILES): CC1(C#N)CCc2c(ccc3ccccc23)C1=O (centres undefined)
- T/C (dose: 50.0 mg/kg/injection, schedule: Q04DX003 (ip), vehicle: other): 122 % of control
- T/C (dose: 100.0 mg/kg/injection, schedule: Q04DX003 (ip), vehicle: other): 107 % of control
- T/C (dose: 100.0 mg/kg/injection, schedule: Q04DX003 (ip), vehicle: saline with Tween-80): 95 % of control
- T/C (dose: 400.0 mg/kg/injection, schedule: Q04DX003 (ip), vehicle: saline with Tween-80): 95 % of control

Structure (SMILES): N#CCCNC(Cc1ccc(O)cc1)C(=O)O (centres undefined)
- T/C (dose: 12.5 mg/kg/injection, schedule: Q01DX009 (ip), vehicle: Klucel (hydroxypropylcellulose) (HPC)): 109 % of control
- T/C [5]: 100 % of control
- T/C [6]: 88 % of control
- T/C (dose: 56.25 mg/kg/injection, schedule: Q04DX003 (ip), vehicle: Klucel (hydroxypropylcellulose) (HPC)): 95 % of control
- T/C (dose: 75.0 mg/kg/injection, schedule: Q01DX009 (ip), vehicle: Klucel (hydroxypropylcellulose) (HPC)): 116 % of control
- T/C (dose: 112.5 mg/kg/injection, schedule: Q04DX003 (ip), vehicle: Klucel (hydroxypropylcellulose) (HPC)): 105 % of control

Structure (SMILES): CCCC1(CCC)c2ccccc2C(CCl)(OCC)c2ccccc21
- T/C (dose: 12.5 mg/kg/injection, schedule: Q01DX009 (ip), vehicle: other): 92 % of control
- T/C (dose: 25.0 mg/kg/injection, schedule: Q01DX009 (ip), vehicle: other): 102 % of control
- T/C (dose: 50.0 mg/kg/injection, schedule: Q01DX009 (ip), vehicle: other): 100 % of control
- T/C (dose: 75.0 mg/kg/injection, schedule: Q01DX009 (ip), vehicle: other): 86 % of control
- T/C (dose: 300.0 mg/kg/injection, schedule: Q01DX009 (ip), vehicle: other): 86 % of control

Structure (SMILES): COc1cc(O)c2c(c1)C(=O)c1cc3c(c(O)c1C2=O)C(O)C(OC)C(C)(O)C3=O (centres undefined)
- T/C [5]: 95 % of control
- T/C [6]: 88 % of control

Structure (SMILES): O=C(O)[C@@H]1[C@H](C(=O)O)[C@H](C(=O)O)C[C@@H]1C(=O)O
- T/C [4]: 102 % of control
- T/C [9]: 94 % of control
- T/C [10]: 96 % of control

Structure (SMILES): Cc1cc(=O)[nH]c2c(C)cc(-c3cc(C)c4[nH]c(=O)cc(C)c4c3)cc12
- T/C [4]: 102 % of control
- T/C [9]: 108 % of control
- T/C [10]: 105 % of control

Structure (SMILES): CC(=O)n1cc(F)c(=O)[nH]c1=O
- T/C (dose: 5.3 mg/kg/injection, schedule: Q01DX009 (ip), vehicle: Klucel (hydroxypropylcellulose) (HPC)): 91 % of control
- T/C (dose: 8.0 mg/kg/injection, schedule: Q01DX009 (ip), vehicle: Klucel (hydroxypropylcellulose) (HPC)): 91 % of control
- T/C (dose: 12.0 mg/kg/injection, schedule: Q01DX009 (ip), vehicle: Klucel (hydroxypropylcellulose) (HPC)): 104 % of control
- T/C (dose: 18.0 mg/kg/injection, schedule: Q01DX009 (ip), vehicle: Klucel (hydroxypropylcellulose) (HPC)): 120 % of control
- T/C (dose: 27.0 mg/kg/injection, schedule: Q01DX009 (ip), vehicle: Klucel (hydroxypropylcellulose) (HPC)): 114 % of control

Structure (SMILES): CCCCCC(CN(C)C)C(=O)/C=C\c1ccc(Cl)cc1Cl (centres undefined)
- T/C (dose: 6.25 mg/kg/injection, schedule: Q01DX009 (ip), vehicle: saline): 105 % of control
- T/C (dose: 12.5 mg/kg/injection, schedule: Q01DX009 (ip), vehicle: saline): 97 % of control

Structure (SMILES): CCCCCCCCCCCC(=O)[O][Sn]([CH2]c1ccccc1)([CH2]c1ccccc1)[CH2]c1ccccc1
- T/C (dose: 1.25 mg/kg/injection, schedule: Q04DX003 (ip), vehicle: other): 107 % of control
- T/C (dose: 2.5 mg/kg/injection, schedule: Q04DX003 (ip), vehicle: other): 105 % of control
- T/C (dose: 5.0 mg/kg/injection, schedule: Q04DX003 (ip), vehicle: other): 95 % of control

Structure (SMILES): CCSCCNC(=O)[C@@]1(O)[C@H](O)[C@]2(CC)C=CCN3CC[C@@]4(c5cc([C@@]6(OC(C)=O)C[C@H]7C=C(CC)CN(CCc8c6[nH]c6ccccc86)C7)c(OC)cc5N(C)[C@@H]14)[C@@H]32
- T/C (dose: 0.13 mg/kg/injection, schedule: Q01DX009 (ip), vehicle: water): 100 % of control
- T/C (dose: 0.25 mg/kg/injection, schedule: Q01DX009 (ip), vehicle: water): 115 % of control
- T/C (dose: 0.5 mg/kg/injection, schedule: Q01DX009 (ip), vehicle: water): 120 % of control
- T/C (dose: 1.0 mg/kg/injection, schedule: Q01DX009 (ip), vehicle: water): 155 % of control
- T/C (dose: 2.0 mg/kg/injection, schedule: Q01DX009 (ip), vehicle: water): 162 % of control

Structure (SMILES): CN1CCC2(CC1)SSC1(CCN(C)CC1)S2
- T/C [4]: 122 % of control
- T/C [11]: 91 % of control
- T/C [9]: 116 % of control
- T/C (dose: 200.0 mg/kg/injection, schedule: Q04DX003 (ip), vehicle: saline): 91 % of control

Structure (SMILES): COc1cc2ccc(CCNCc3ccccc3)cc2cc1OC
- T/C (dose: 50.0 mg/kg/injection, schedule: Q04DX003 (ip), vehicle: saline): 92 % of control
- T/C [11]: 94 % of control

Structure (SMILES): CCCCNC(C)C1(O)Cc2c(O)c3c(c(O)c2C(OC2CC(N)C(O)C(C)O2)C1)C(=O)c1c(OC)cccc1C3=O (centres undefined)
- T/C (dose: 50.0 mg/kg/injection, schedule: Q01DX001 (ip), vehicle: water): 114 % of control and 181 % of control and 204 % of control
- T/C (dose: 100.0 mg/kg/injection, schedule: Q01DX001 (ip), vehicle: water): 114 % of control and 263 % of control and 292 % of control
- T/C (dose: 200.0 mg/kg/injection, schedule: Q01DX001 (ip), vehicle: water): 117 % of control and 217 % of control and 293 % of control
- T/C (dose: 400.0 mg/kg/injection, schedule: Q01DX001 (ip), vehicle: water): 89 % of control

Structure (SMILES): NC(=O)Oc1ccc(Cc2ccccc2)cc1
- T/C (dose: 100.0 mg/kg/injection, schedule: Q04DX003 (ip), vehicle: Klucel (hydroxypropylcellulose) (HPC)): 95 % of control
- T/C (dose: 200.0 mg/kg/injection, schedule: Q04DX003 (ip), vehicle: Klucel (hydroxypropylcellulose) (HPC)): 91 % of control
- T/C (dose: 400.0 mg/kg/injection, schedule: Q04DX003 (ip), vehicle: Klucel (hydroxypropylcellulose) (HPC)): 97 % of control
